Source: ChEMBL document CHEMBL1201862, “PubChem BioAssay data set” (2004)
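48-hour exposure; five concentrations; linearly interpolated endpoints. At the GI50, growth is halved.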 Activity calls are given as the source filed them. Rule as the data show it: active = GI50 up to about 1.1 µM and inactive = higher.

Assays:
Test in all cases: NCI-60 cell line screen, 48 h
DU-145 = tested on: DU-145
HOP-62 = tested on: HOP-62
U-251 = tested on: U-251
CCRF-CEM = tested on: CCRF-CEM
SNB-19 = tested on: SNB-19
UACC-62 = tested on: UACC-62
PC-3 = tested on: PC-3
RPMI-8226 = tested on: RPMI-8226
CAKI-1 = tested on: CAKI-1
HCT-15 = tested on: HCT-15
RXF 393 = tested on: RXF 393
SNB-75 = tested on: SNB-75
MOLT-4 = tested on: MOLT-4
A549 = tested on: A549
IGROV-1 = tested on: IGROV-1
UO-31 = tested on: UO-31
M14 = tested on: M14
Hs-578T = tested on: Hs-578T
MDA-MB-435 = tested on: MDA-MB-435
SK-OV-3 = tested on: SK-OV-3
OVCAR-5 = tested on: OVCAR-5
OVCAR-8 = tested on: OVCAR-8
HCT-116 = tested on: HCT-116
COLO 205 = tested on: COLO 205
MDA-MB-231 = tested on: MDA-MB-231
OVCAR-3 = tested on: OVCAR-3
EKVX = tested on: EKVX
KM12 = tested on: KM12
Malme-3M = tested on: Malme-3M
SK-MEL-2 = tested on: SK-MEL-2
NCI-H460 = tested on: NCI-H460
NCI-H226 = tested on: NCI-H226
NCI/ADR-RES = tested on: NCI/ADR-RES
SK-MEL-28 = tested on: SK-MEL-28
T47D = tested on: T47D
BT-549 = tested on: BT-549
786-0 = tested on: 786-0
NCI-H23 = tested on: NCI-H23
HL-60 = tested on: HL-60
ACHN = tested on: ACHN
HOP-92 = tested on: HOP-92
SF-268 = tested on: SF-268
HT-29 = tested on: HT-29
SF-295 = tested on: SF-295
NCI-H522 = tested on: NCI-H522
UACC-257 = tested on: UACC-257
A498 = tested on: A498
TK-10 = tested on: TK-10
SF-539 = tested on: SF-539
K562 = tested on: K562
MDA-N = tested on: MDA-N
LOX IMVI = tested on: LOX IMVI
SK-MEL-5 = tested on: SK-MEL-5
SN12C = tested on: SN12C
SW-620 = tested on: SW-620
MCF7 = tested on: MCF7

For `COC(=O)C(Cc1c(-c2[nH]c3ccccc3c2CC(NC(C)=O)C(=O)OC)[nH]c2ccccc12)NC(C)=O` (stereo unspecified), which GI50 (DU-145) is on record?
Its GI50 is > 100 µM (inactive).

What about the GI50 (HOP-62) of the same molecule?
Its GI50 is > 100 µM (inactive).

And the GI50 (U-251)?
Its GI50 is > 100 µM (inactive).

What about the GI50 (CCRF-CEM) of the same molecule?
Its GI50 is > 100 µM (inactive).

What about the GI50 (SNB-19) of the same molecule?
Its GI50 is > 100 µM (inactive).

And the GI50 (UACC-62)?
The GI50 was > 100 µM (inactive).

What about the GI50 (PC-3) of the same molecule?
Its GI50 is > 100 µM (inactive).

What about the GI50 (RPMI-8226) of the same molecule?
The GI50 was > 100 µM (inactive).

And the GI50 (CAKI-1)?
The GI50 was > 100 µM (inactive).

And the GI50 (HCT-15)?
Its GI50 is over 100 µM.

What about the GI50 (RXF 393) of the same molecule?
The GI50 was > 100 µM (inactive).

And the GI50 (SNB-75)?
Its GI50 is 92 µM (inactive).

What about the GI50 (MOLT-4) of the same molecule?
The GI50 was > 100 µM (inactive).

What about the GI50 (A549) of the same molecule?
Its GI50 is > 100 µM (inactive).

And the GI50 (IGROV-1)?
The GI50 was > 100 µM (inactive).

And the GI50 (UO-31)?
The GI50 was > 100 µM (inactive).

And the GI50 (M14)?
The GI50 was > 100 µM (inactive).

What about the GI50 (Hs-578T) of the same molecule?
The GI50 was > 100 µM (inactive).

What about the GI50 (MDA-MB-435) of the same molecule?
Its GI50 is > 100 µM (inactive).

And the GI50 (SK-OV-3)?
Its GI50 is > 100 µM (inactive).

What about the GI50 (OVCAR-5) of the same molecule?
Its GI50 is > 100 µM (inactive).

What about the GI50 (OVCAR-8) of the same molecule?
The GI50 was > 100 µM (inactive).

What about the GI50 (HCT-116) of the same molecule?
Its GI50 is > 100 µM (inactive).

And the GI50 (COLO 205)?
The GI50 was > 100 µM (inactive).

What about the GI50 (MDA-MB-231) of the same molecule?
The GI50 was > 100 µM (inactive).

And the GI50 (OVCAR-3)?
Its GI50 is > 100 µM (inactive).

And the GI50 (EKVX)?
The GI50 was > 100 µM (inactive).

What about the GI50 (KM12) of the same molecule?
Its GI50 is > 100 µM (inactive).

And the GI50 (Malme-3M)?
Its GI50 is > 100 µM (inactive).

What about the GI50 (SK-MEL-2) of the same molecule?
The GI50 was > 100 µM (inactive).

What about the GI50 (NCI-H460) of the same molecule?
The GI50 was > 100 µM (inactive).

And the GI50 (NCI-H226)?
Its GI50 is > 100 µM (inactive).

And the GI50 (NCI/ADR-RES)?
The GI50 was > 100 µM (inactive).

What about the GI50 (SK-MEL-28) of the same molecule?
The GI50 was > 100 µM (inactive).

And the GI50 (T47D)?
The GI50 was > 100 µM (inactive).

And the GI50 (BT-549)?
The GI50 was > 100 µM (inactive).

And the GI50 (786-0)?
The GI50 was > 100 µM (inactive).

What about the GI50 (NCI-H23) of the same molecule?
The GI50 was > 100 µM (inactive).

And the GI50 (HL-60)?
Its GI50 is > 100 µM (inactive).

And the GI50 (ACHN)?
Its GI50 is > 100 µM (inactive).

And the GI50 (HOP-92)?
Its GI50 is > 100 µM (inactive).

And the GI50 (SF-268)?
The GI50 was > 100 µM (inactive).

What about the GI50 (HT-29) of the same molecule?
Its GI50 is > 100 µM (inactive).

And the GI50 (SF-295)?
The GI50 was > 100 µM (inactive).

What about the GI50 (NCI-H522) of the same molecule?
The GI50 was 16.3 µM (inactive).

And the GI50 (UACC-257)?
Its GI50 is > 100 µM (inactive).

What about the GI50 (A498) of the same molecule?
Its GI50 is > 100 µM (inactive).

What about the GI50 (TK-10) of the same molecule?
The GI50 was > 100 µM (inactive).

What about the GI50 (SF-539) of the same molecule?
The GI50 was > 100 µM (inactive).

What about the GI50 (K562) of the same molecule?
The GI50 was > 100 µM (inactive).

What about the GI50 (MDA-N) of the same molecule?
The GI50 was > 100 µM (inactive).

What about the GI50 (LOX IMVI) of the same molecule?
The GI50 was > 100 µM (inactive).

What about the GI50 (SK-MEL-5) of the same molecule?
Its GI50 is > 100 µM (inactive).

And the GI50 (SN12C)?
Its GI50 is > 100 µM (inactive).

And the GI50 (SW-620)?
The GI50 was > 100 µM (inactive).

For `C[N+](C)(C)CCOP(=O)(O)OP(=O)([O-])OCC1CCC(n2ccc(N)nc2=O)O1` (stereo unspecified), which GI50 (U-251) is on record?
The GI50 was > 100 µM (inactive).

What about the GI50 (CCRF-CEM) of the same molecule?
The GI50 was > 100 µM (inactive).

What about the GI50 (SNB-19) of the same molecule?
The GI50 was > 100 µM (inactive).

What about the GI50 (PC-3) of the same molecule?
The GI50 was > 100 µM (inactive).

And the GI50 (RXF 393)?
Its GI50 is > 100 µM (inactive).

What about the GI50 (MOLT-4) of the same molecule?
The GI50 was > 100 µM (inactive).

What about the GI50 (MCF7) of the same molecule?
The GI50 was > 100 µM (inactive).

And the GI50 (IGROV-1)?
Its GI50 is > 100 µM (inactive).

And the GI50 (Hs-578T)?
The GI50 was > 100 µM (inactive).

What about the GI50 (SK-OV-3) of the same molecule?
The GI50 was > 100 µM (inactive).

And the GI50 (OVCAR-8)?
Its GI50 is > 100 µM (inactive).

And the GI50 (HCT-116)?
Its GI50 is > 100 µM (inactive).

And the GI50 (COLO 205)?
The GI50 was > 100 µM (inactive).

What about the GI50 (MDA-MB-231) of the same molecule?
Its GI50 is > 100 µM (inactive).

And the GI50 (EKVX)?
Its GI50 is > 100 µM (inactive).

And the GI50 (SK-MEL-2)?
Its GI50 is > 100 µM (inactive).

And the GI50 (NCI/ADR-RES)?
Its GI50 is > 100 µM (inactive).

What about the GI50 (T47D) of the same molecule?
The GI50 was > 100 µM (inactive).

And the GI50 (BT-549)?
Its GI50 is > 100 µM (inactive).

And the GI50 (786-0)?
Its GI50 is > 100 µM (inactive).

And the GI50 (MDA-N)?
Its GI50 is > 100 µM (inactive).
